{"source": "paper PMC6813354", "about": "“Bases of Bacterial Sodium Channel Selectivity Among Organic Cations” (Scientific Reports, 2019)", "molecular_target": "T1, NaChBac (Halalkalibacterium halodurans, UniProt Q9KCR8)", "T1 construct": "gene BH1501; NaChBac in pTracer-CMV2, transiently expressed in tsA 201 cells; homotetramer", "T1 sequence (Q9KCR8 1-274)": "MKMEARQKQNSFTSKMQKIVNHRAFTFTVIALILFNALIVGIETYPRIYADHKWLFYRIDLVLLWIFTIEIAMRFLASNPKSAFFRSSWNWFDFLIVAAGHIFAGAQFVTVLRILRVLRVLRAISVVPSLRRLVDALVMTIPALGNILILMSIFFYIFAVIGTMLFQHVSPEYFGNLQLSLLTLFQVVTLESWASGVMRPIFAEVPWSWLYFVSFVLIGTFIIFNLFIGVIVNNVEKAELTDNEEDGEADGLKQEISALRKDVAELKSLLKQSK", "assay": "whole-cell patch clamp", "format": "cell-based", "details": "142.5 mM external replacing Na+; pH 7.4; room temperature; weak pore block of Na+ current", "data": [{"smiles": "CN", "note": "[MA^+, methylammonium]", "values": [{"measurement": "whole-cell patch clamp", "value": "MA^+ reduces the sodium current amplitude more effectively than TMA^+ in WT and E191D mutant"}]}, {"smiles": "C[N+](C)(C)C", "note": "[TMA^+, tetramethylammonium]", "values": [{"measurement": "whole-cell patch clamp", "value": "different blocking effects of TMA^+ (purple) and MA^+ (orange), relative to Na^+ controls"}]}]}
